# Like-named read-outs stand apart in the source and are kept apart here.
# Experiments:
# [1] = Example IX: stability of 1% Dobutamine sulphate solution at 50° C.; assay type: physicochemical
# Description: A Dobutamine sulphate solution is prepared by dissolving 1 g Dobutamine in 50 ml of water and 19 ml of a 0.10% sodium ascorbate solution is added, with continuous bubbling of nitrogen. Then 25 mg hydrated cysteine chlorhydrate and 70 mg hydrated sodium citrate are added, then 700 mg sodium chloride to ensure isotonicity. The solution is made up to 100 ml by the addition of distilled water for injectable preparations.
# It is filled into 100 ml bottles under nitrogen until the residual oxygen content is below 0.8 ppm. The bottles are then stoppered under vacuum (approx. 10,000 Pa) and sterilized at 121° C. for 20 minutes.
# After removal from the autoclave, the bottles are kept in darkness in a thermostatic cupboard at 50° C.
# An evaluation is made of absorption at 308 nm as an indication of oxidation into secondary products, the residual oxygen content and the residual cysteine content immediately after sterilization, then after being kept for 14 days at 50° C.
# Coloration remains slight and reduces as the pH increases.
# [2] = Example V: residual cysteine in buffered aqueous cysteine solutions; assay type: physicochemical; details: 0.25 mg/ml cysteine, approx. 7 ppm O2, darkness 25° C. 3 days
# Description: A 0.25 mg/ml aqueous cysteine solution was adjusted to pH 5.5, made isotonic by sodium chloride and buffered using as a buffering agent: dehydrated sodium citrate (0.70 mg/ml), sodium acetate, sodium hydrogenophosphate, in quantities equimolar to that of the citrate. […] They were kept in darkness at 25° C. for 3 days.
# [3] = Example VI: buffered paracetamol + cysteine solutions without deoxygenation; assay type: physicochemical; details: 10 mg/ml paracetamol + 0.25 mg/ml cysteine, no inert gas, darkness 25° C. 3 days
# Description: A quantity of sodium citrate (in the form of dihydrated disodic citrate) was added to 10 mg/ml aqueous paracetamol solutions, made isotonic by NaCl and stabilized by the addition of cysteine hydrochlorhide (0.25 mg/ml) suitable for adjusting the pH to 5.5. […] Comparative solutions were prepared without sodium citrate or replacing the citrate ions by equimolar quantities to those of the citrate, of either sodium acetate, or sodium hydrogenophosphate; in all cases adjusting the pH to a value of 5.5 by the addition of sodium hydroxide or hydrochloric acid.
# The solutions were not subjected to bubbling with inert gas (nitrogen) and were kept in darkness at 25° C. for 3 days.
# [4] = for coloration: sterilized 121° C. 15 min
# Description: A 10 mg/ml aqueous paracetamol solution is prepared. Adjustment to pH 5.5 is carried out by the addition of HCl, and buffering by the addition of sodium hydrogenophosphate.
# Deoxygenation is then carried out by bubbling with nitrogen, until a residual oxygen content of approximately 0.2 ppm is obtained. After the bottles are filled with the solution during prolonged bubbling with nitrogen, they are sterilized at 121° C. for 15 minutes.
# In another test, the paracetamol solution, after being subjected to bubbling with nitrogen, has been packaged under nitrogen.
# [5] = Paracetamol solution with trisodic citrate kept at 40° C. (general statement); assay type: physicochemical
# Description: In particular, in the case of paracetamol, after the addition of trisodic citrate at a concentration of 70 mg/100 ml of solution, the residual cysteine concentration is approximately double than that of preparations without citrate, no coloration appeared, even after 7 weeks at 40° C., and there was no variation in the concentration of paracetamol.
# [6] = Description: A 10 mg/ml aqueous paracetamol solution adjusted to pH 5.5 by sodium hydroxide and buffered at this value by sodium acetate was made isotonic by a sufficient quantity of sodium chloride, then an antioxidant is added to it, in this case 0.20 mg/ml cysteine chlorhydrate. This solution was subjected to bubbling with nitrogen then placed under vacuum (low pressure approx. 550 mm of Hg) before stoppering the bottles. […] After sterilization, the bottles containing this solution were kept for 24 months at 25° C.
# [7] = ambient temperature under light, and 70° C. in darkness; nitrogen bubbling, filling under nitrogen, antioxidant added; cited from earlier work
# [8] = Example III: stability of paracetamol solution with or without citrate ions; assay type: physicochemical; details: O2 approx. 0.4 ppm, sterilized
# Description: Thus a 10 mg/ml paracetamol solution adjusted to pH 5.5 by hydrochloric acid was subjected to bubbling with nitrogen until an oxygen content of approximately 0.4 ppm was obtained. The bottles were sterilized at 121° C. for 15 minutes and kept at ambient temperature. […] After bubbling with nitrogen, the residual oxygen content is of the order of 0.4 ppm. Afterwards the solution is packaged into bottles under vacuum and sterilized at 121° C. for 15 minutes. The bottles are kept for 67 days at ambient temperature.
# [9] = pH 5.5, sodium hydrogenophosphate
# [10] = trisodic citrate 70 mg/100 ml, after 7 weeks at 40° C.
compound,measurement,setting,value
CC(CCc1ccc(O)cc1)NCCc1ccc(O)c(O)c1 (stereo not drawn) [Dobutamine],degradation of the Dobutamine in heat,"[1]; 1% solution with ascorbate, cysteine, citrate, vacuum, sterilized 121° C. 20 min, kept at 50° C.",no degradation
same,"secondary peaks by liquid chromatography, absorption at 308 nm",[1]; degree decreases as the pH increases,appearance of secondary peaks
same,coloration,[1]; reduces as the pH increases,slight
N[C@@H](CS)C(=O)O [cysteine],residual cysteine content,"[2]; pH 5.5, citrate 0.70 mg/ml",lowest
same,residual cysteine content,"[2]; pH 5.5, non-buffered",15%
same,residual cysteine content,"[2]; pH 5.5, sodium acetate",18%
same,residual cysteine content,[2]; [9],21%
same,residual cysteine,"[3]; pH 5.5, citrate approx. 0.7 mg/ml",22%
same,residual cysteine,"[3]; pH 5.5, non-buffered",42%
same,residual cysteine,"[3]; pH 5.5, sodium acetate",17%
same,residual cysteine,[3]; [9],21%
CC(=O)Nc1ccc(O)cc1 [paracetamol],coloration,"[4]; 10 mg/ml, pH 5.5, no antioxidant, O2 approx. 0.2 ppm, 6 months at 25° C.",colourless
same,paracetamol content,"[4]; 10 mg/ml, pH 5.5, no antioxidant, O2 approx. 0.2 ppm, sterilized, 6 months at 25° C.",no change
same,content of degradation products of paracetamol determined by HPLC,"[4]; 6 months, 10 mg/ml, pH 5.5",lower than 0.015 % of the paracetamol
same,coloration,"[4]; packaged under nitrogen, vacuum < 10,000 Pa, O2 0.16 ppm, 8 days at 30° C.",colourless
same,residual cysteine concentration versus preparations without citrate,[5]; trisodic citrate 70 mg/100 ml of solution,approximately double
same,coloration,[5]; [10],no coloration
same,variation in the concentration of paracetamol,[5]; [10],no variation
same,paracetamol content,"[6]; 0.20 mg/ml cysteine chlorhydrate, O2 approx. 1.5 ppm, sterilized, 24 months at 25° C.",100 % of the original value
same,coloration,"[6]; 10 mg/ml, pH 5.5, acetate buffer, 0.20 mg/ml cysteine chlorhydrate, vacuum, O2 approx. 1.5 ppm, sterilized, 24 months at 25° C.",colourless
same,degradation products of the paracetamol measured by HPLC,"[6]; 24 months, 10 mg/ml, pH 5.5",less than 0.02 % of the paracetamol content
same,time for which aqueous solutions are stable,[7],48 h
same,coloration,"[8]; 10 mg/ml with citric acid/sodium citrate, under vacuum, 67 days at ambient temperature",perfectly colourless
same,coloration,"[8]; 10 mg/ml, pH 5.5 by HCl, no citrate, 9 days at ambient temperature",yellow-pink

# — patent publication US6992218B2, “Method for obtaining aqueous formulations of oxidation-sensitive active principles” (Pharmatop SCR, priority 2000, dated 2006)
